EP0262903A2, “New acyl derivatives of 20-modified tylosin and desmycosin compounds” (priority 1986, dated 1988)
≈ marks a conversion by molar mass, not a printed value. Like-named read-outs stand apart in the source and are kept apart here.

Key:
[1] = system: Pseudomonas aeruginosa X239; experiment: MIC, standard agar-dilution assay; assay type: cell-based; conditions: Pseudomonas aeruginosa X239; agar dilution; read-out: MIC
Experimental: (§1) The MIC's in Table II were determined by standard agar-dilution assays. The MIC's in Table III were obtained using conventional broth-dilution microtiter tests.

[2] = system: Streptococcus faecalis 2041; experiment: MIC, standard agar-dilution assay; assay type: cell-based; conditions: Enterococcus faecalis; Streptococcus faecalis 2041; agar dilution; read-out: MIC
Experimental: as §1

[3] = system: Streptococcus pyogenes C203; experiment: MIC, standard agar-dilution assay; assay type: cell-based; conditions: Streptococcus pyogenes C203; agar dilution; read-out: MIC
Experimental: as §1

[4] = system: Haemophilus influenzae 76; experiment: MIC, standard agar-dilution assay; assay type: cell-based; conditions: Haemophilus influenzae 76; Ampicillin-resistant strain; agar dilution; read-out: MIC
Experimental: as §1

[5] = system: Streptococcus faecalis X66; experiment: MIC, standard agar-dilution assay; assay type: cell-based; conditions: Enterococcus faecalis; Streptococcus faecalis X66; agar dilution; read-out: MIC
Experimental: as §1

[6] = system: Haemophilus influenzae C.L.; experiment: MIC, standard agar-dilution assay; assay type: cell-based; conditions: Haemophilus influenzae C.L.; Ampicillin-sensitive strain; agar dilution; read-out: MIC
Experimental: as §1

[7] = system: Staphylococcus epidermidis 222; experiment: MIC, standard agar-dilution assay; assay type: cell-based; conditions: Staphylococcus epidermidis 222; agar dilution; read-out: MIC
Experimental: as §1

[8] = system: Staphylococcus epidermidis EPI1; experiment: MIC, standard agar-dilution assay; assay type: cell-based; conditions: Staphylococcus epidermidis EPI1; agar dilution; read-out: MIC
Experimental: as §1

[9] = system: Klebsiella pneumoniae X68; experiment: MIC, standard agar-dilution assay; assay type: cell-based
Experimental: as §1

[10] = system: Staphylococcus aureus X1.1; experiment: MIC, standard agar-dilution assay; assay type: cell-based; conditions: Staphylococcus aureus X1.1; agar dilution; read-out: MIC
Experimental: as §1

[11] = system: Staphylococcus aureus V41; experiment: MIC, standard agar-dilution assay; assay type: cell-based; conditions: Staphylococcus aureus V41; Penicillin-resistant strain; agar dilution; read-out: MIC
Experimental: as §1

[12] = system: Staphylococcus aureus X400; experiment: MIC, standard agar-dilution assay; assay type: cell-based; conditions: Staphylococcus aureus X400; Methicillin-resistant strain; agar dilution; read-out: MIC
Experimental: as §1

[13] = system: Streptococcus pneumoniae Park I; experiment: MIC, standard agar-dilution assay; assay type: cell-based; conditions: Streptococcus pneumoniae Park I; agar dilution; read-out: MIC
Experimental: as §1

[14] = system: Staphylococcus aureus S13E; experiment: MIC, standard agar-dilution assay; assay type: cell-based
Experimental: as §1

[15] = system: Escherichia coli EC14; experiment: MIC, standard agar-dilution assay; assay type: cell-based; conditions: Escherichia coli EC14; agar dilution; read-out: MIC
Experimental: as §1

[16] = system: Streptococcus pyogenes C203; experiment: ED50 in mice experimentally infected with S. pyogenes C203; assay type: in vivo; conditions: two doses given 1 and 4 hours post-infection, dose protecting 50% of the test animals
Experimental: The formula 1 compounds have shown in vivo antimicrobial activity against experimentally-induced infections in laboratory animals. When two doses of test compound were administered to mice experimentally infected with S. pyogenes C203, the activity observed was measured as an ED₅₀ value [effective dose in mg/kg to protect 50% of the test animals: see Warren Wick, et 5 al., J. Bacteriol. 81, 233-235 (1961)].

[17] = system: Mycoplasma gallisepticum 15E; experiment: MIC, conventional broth-dilution microtiter test; assay type: cell-based; conditions: Mycoplasmoides gallisepticum
Experimental: as §1

[18] = system: Pasteurella multocida 40G; experiment: MIC, conventional broth-dilution microtiter test; assay type: cell-based
Experimental: as §1

[19] = system: Pasteurella multocida 60A; experiment: MIC, conventional broth-dilution microtiter test; assay type: cell-based; conditions: Avian isolate
Experimental: as §1

[20] = system: Staphylococcus aureus; experiment: MIC, conventional broth-dilution microtiter test; assay type: cell-based
Experimental: as §1

[21] = system: Pasteurella multocida 22A; experiment: MIC, conventional broth-dilution microtiter test; assay type: cell-based
Experimental: as §1

[22] = system: Pasteurella multocida 68C; experiment: MIC, conventional broth-dilution microtiter test; assay type: cell-based
Experimental: as §1

[23] = system: Mycoplasma gallisepticum 36H; experiment: MIC, conventional broth-dilution microtiter test; assay type: cell-based; conditions: Mycoplasmoides gallisepticum
Experimental: as §1

[24] = system: Pasteurella hemolytica 41D; experiment: MIC, conventional broth-dilution microtiter test; assay type: cell-based
Experimental: as §1

[25] = system: Bordetella bronchiseptica; experiment: MIC, conventional broth-dilution microtiter test; assay type: cell-based
Experimental: as §1

[26] = system: Mycoplasma hyopneumoniae S5972; experiment: MIC, conventional broth-dilution microtiter test; assay type: cell-based; conditions: Mesomycoplasma hyopneumoniae
Experimental: as §1

[27] = system: Pasteurella multocida 17E; experiment: MIC, conventional broth-dilution microtiter test; assay type: cell-based; conditions: Bovine isolate
Experimental: as §1

[28] = system: Pasteurella hemolytica 22C; experiment: MIC, conventional broth-dilution microtiter test; assay type: cell-based
Experimental: as §1

[29] = system: Streptococcus sp. 19F; experiment: MIC, conventional broth-dilution microtiter test; assay type: cell-based
Experimental: as §1

[30] = system: Pasteurella hemolytica 23C; experiment: MIC, conventional broth-dilution microtiter test; assay type: cell-based
Experimental: as §1

[31] = system: Mycoplasma gallisepticum 29C; experiment: MIC, conventional broth-dilution microtiter test; assay type: cell-based; conditions: Mycoplasmoides gallisepticum
Experimental: as §1

[32] = system: Mycoplasma hyorhinis 29E; experiment: MIC, conventional broth-dilution microtiter test; assay type: cell-based
Experimental: as §1

[33] = system: Mycoplasma synoviae 40A; experiment: MIC, conventional broth-dilution microtiter test; assay type: cell-based; conditions: Mycoplasmopsis synoviae
Experimental: as §1

[34] = C203, mice, oral, read-out: ED50 Oral
[35] = C203, sc, mice, subcutaneous, read-out: ED50 Subcutaneous

Row | Compound | MIC [1] | MIC [2] | MIC [3] | MIC [4] | MIC [5] | MIC [6] | MIC [7] | MIC [8] | MIC [10] | MIC [11] | MIC [12] | MIC [13] | MIC [14] | MIC [15] | ED50 [16, 34] | ED50 [16, 35] | MIC [17] | MIC [18] | MIC [19] | MIC [20] | other results
1 | CCC1OC(=O)CC(O)C(C)C(OC2OC(C)C(O)C(N(C)C)C2O)C(CCOc2ccccc2)CC(C)C(=O)C=CC(C)=CC1COC1OC(C)C(OC(=O)CN2CCCC2)C(OC)C1OC (stereo not drawn) [Compound 13, 20-DH-20-O-Phenyl-4ʹʹ-O-(pyrrolidin-1-ylacetyl)-desmycosin] | > 128 µg/mL | 16 µg/mL (≈ 16.6 µM) | 1 µg/mL (≈ 1.04 µM) | 32 µg/mL (≈ 33.3 µM) | 16 µg/mL (≈ 16.6 µM) | 32 µg/mL (≈ 33.3 µM) | 0.5 µg/mL (≈ 0.52 µM) | 1 µg/mL (≈ 1.04 µM) | 0.5 µg/mL (≈ 0.52 µM) | 1 µg/mL (≈ 1.04 µM) | 1 µg/mL (≈ 1.04 µM) | 2 µg/mL (≈ 2.08 µM) | 1 µg/mL (≈ 1.04 µM) | > 128 µg/mL | 24 mg/kg | 10 mg/kg | 50 µg/mL (≈ 52 µM) | 25 µg/mL (≈ 26 µM) | 50 µg/mL (≈ 52 µM) | 3.12 µg/mL (≈ 3.25 µM) | MIC ([9]; Klebsiella pneumoniae, X68): > 128 µg/mL; MIC [21]: 50 µg/mL (≈ 52 µM); MIC [22]: 25 µg/mL (≈ 26 µM); MIC [23]: 50 µg/mL (≈ 52 µM); MIC [24]: > 50 µg/mL; MIC [25]: > 50 µg/mL; MIC [26]: > 50 µg/mL; MIC [27]: 50 µg/mL (≈ 52 µM); MIC [28]: > 50 µg/mL; MIC [29]: 6.25 µg/mL (≈ 6.5 µM); MIC [30]: 50 µg/mL (≈ 52 µM); MIC [31]: 1.56 µg/mL (≈ 1.62 µM)
2 | CCC1OC(=O)CC(O)C(C)C(OC2OC(C)C(O)C(N(C)C)C2O)C(CCOc2ccccc2)CC(C)C(=O)C=CC(C)=CC1COC1OC(C)C(OC(C)=O)C(OC)C1OC (stereo not drawn) [Compound 2, 4ʹʹ-O-Acetyl-20-DH-20-O-phenyl-desmycosin] | > 128 µg/mL | 32 µg/mL (≈ 35.9 µM) | 1 µg/mL (≈ 1.12 µM) | 128 µg/mL (≈ 143 µM) | 16 µg/mL (≈ 17.9 µM) | 128 µg/mL (≈ 143 µM) | 1 µg/mL (≈ 1.12 µM) | 2 µg/mL (≈ 2.24 µM) | 2 µg/mL (≈ 2.24 µM) | 2 µg/mL (≈ 2.24 µM) | 2 µg/mL (≈ 2.24 µM) | 2 µg/mL (≈ 2.24 µM) | 2 µg/mL (≈ 2.24 µM) | > 128 µg/mL | 10.9 mg/kg | 4.46 mg/kg | 50 µg/mL (≈ 56 µM) | 50 µg/mL (≈ 56 µM) | > 50 µg/mL | 1.56 µg/mL (≈ 1.75 µM) | MIC ([9]; Klebsiella pneumoniae X68, agar dilution, read-out: MIC): > 128 µg/mL; MIC [21]: > 50 µg/mL; MIC [22]: 25 µg/mL (≈ 28 µM); MIC [23]: 50 µg/mL (≈ 56 µM); MIC [32]: 50 µg/mL (≈ 56 µM); MIC [24]: > 50 µg/mL; MIC [25]: > 50 µg/mL; MIC [33]: 3.12 µg/mL (≈ 3.5 µM); MIC [26]: 25 µg/mL (≈ 28 µM); MIC [27]: 50 µg/mL (≈ 56 µM); MIC [28]: > 50 µg/mL; MIC [29]: 12.5 µg/mL (≈ 14 µM); MIC [30]: 50 µg/mL (≈ 56 µM); MIC [31]: 0.78 µg/mL (≈ 0.874 µM)
